Data: patent US20260183262A1, “RNA-BINDING MOTIF PROTEIN 39 (RBM39) DEGRADERS FOR TREATMENT OF CANCERS” (RECURSION PHARMACEUTICALS, INC., priority 2022, published 2026)

Legend:
[1] = biological target: T1, CDK12+Cyclin K (Homo sapiens, UniProt Q9NYV4); experiment: NanoBRET target engagement intracellular kinase assay in HEK293; format: cell-based; conditions: HEK293 cells transfected with CDK12-NanoLuc and CCNK; up to 10 μM
T1 construct: host or cells: HEK293 (transient transfection, FuGENE HD)
T1 sequence (Q9NYV4 whole entry): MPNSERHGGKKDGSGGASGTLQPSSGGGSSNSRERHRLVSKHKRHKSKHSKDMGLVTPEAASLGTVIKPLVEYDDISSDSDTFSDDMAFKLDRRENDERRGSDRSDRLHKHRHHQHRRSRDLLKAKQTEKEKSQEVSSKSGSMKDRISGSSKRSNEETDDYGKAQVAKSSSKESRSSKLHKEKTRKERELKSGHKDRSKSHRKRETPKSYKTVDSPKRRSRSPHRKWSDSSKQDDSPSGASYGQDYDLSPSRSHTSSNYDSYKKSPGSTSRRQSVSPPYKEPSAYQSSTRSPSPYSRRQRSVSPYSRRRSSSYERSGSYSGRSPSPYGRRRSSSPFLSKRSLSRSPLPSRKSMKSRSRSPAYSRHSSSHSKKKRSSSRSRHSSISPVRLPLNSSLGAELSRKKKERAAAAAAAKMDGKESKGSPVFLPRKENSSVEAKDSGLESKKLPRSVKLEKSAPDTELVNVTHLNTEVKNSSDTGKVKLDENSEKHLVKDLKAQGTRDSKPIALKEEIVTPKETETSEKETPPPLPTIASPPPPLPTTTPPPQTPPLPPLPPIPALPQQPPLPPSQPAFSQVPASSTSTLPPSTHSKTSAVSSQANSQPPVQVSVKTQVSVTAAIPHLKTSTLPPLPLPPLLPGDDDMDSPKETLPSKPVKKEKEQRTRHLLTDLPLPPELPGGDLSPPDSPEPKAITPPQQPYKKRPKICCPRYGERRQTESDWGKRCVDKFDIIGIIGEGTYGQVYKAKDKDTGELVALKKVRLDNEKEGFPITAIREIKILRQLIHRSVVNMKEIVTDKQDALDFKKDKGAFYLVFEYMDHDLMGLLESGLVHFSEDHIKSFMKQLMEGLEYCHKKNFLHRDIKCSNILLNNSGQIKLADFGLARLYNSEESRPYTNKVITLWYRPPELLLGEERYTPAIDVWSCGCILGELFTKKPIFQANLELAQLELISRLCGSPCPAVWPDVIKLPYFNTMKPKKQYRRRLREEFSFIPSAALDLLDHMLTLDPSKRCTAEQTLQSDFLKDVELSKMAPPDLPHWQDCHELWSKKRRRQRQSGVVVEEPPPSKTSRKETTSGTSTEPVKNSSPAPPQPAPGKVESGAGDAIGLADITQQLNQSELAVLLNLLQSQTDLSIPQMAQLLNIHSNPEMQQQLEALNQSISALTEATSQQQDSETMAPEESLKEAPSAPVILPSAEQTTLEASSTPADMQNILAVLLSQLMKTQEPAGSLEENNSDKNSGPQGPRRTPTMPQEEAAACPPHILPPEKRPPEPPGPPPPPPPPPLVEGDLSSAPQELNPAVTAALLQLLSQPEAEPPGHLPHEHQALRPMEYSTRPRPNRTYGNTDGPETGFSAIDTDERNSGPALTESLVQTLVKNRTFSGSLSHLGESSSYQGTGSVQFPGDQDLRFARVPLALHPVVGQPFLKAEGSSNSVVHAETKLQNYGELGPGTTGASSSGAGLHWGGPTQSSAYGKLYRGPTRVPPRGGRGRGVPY
T1 sequence (O75909 whole entry partner): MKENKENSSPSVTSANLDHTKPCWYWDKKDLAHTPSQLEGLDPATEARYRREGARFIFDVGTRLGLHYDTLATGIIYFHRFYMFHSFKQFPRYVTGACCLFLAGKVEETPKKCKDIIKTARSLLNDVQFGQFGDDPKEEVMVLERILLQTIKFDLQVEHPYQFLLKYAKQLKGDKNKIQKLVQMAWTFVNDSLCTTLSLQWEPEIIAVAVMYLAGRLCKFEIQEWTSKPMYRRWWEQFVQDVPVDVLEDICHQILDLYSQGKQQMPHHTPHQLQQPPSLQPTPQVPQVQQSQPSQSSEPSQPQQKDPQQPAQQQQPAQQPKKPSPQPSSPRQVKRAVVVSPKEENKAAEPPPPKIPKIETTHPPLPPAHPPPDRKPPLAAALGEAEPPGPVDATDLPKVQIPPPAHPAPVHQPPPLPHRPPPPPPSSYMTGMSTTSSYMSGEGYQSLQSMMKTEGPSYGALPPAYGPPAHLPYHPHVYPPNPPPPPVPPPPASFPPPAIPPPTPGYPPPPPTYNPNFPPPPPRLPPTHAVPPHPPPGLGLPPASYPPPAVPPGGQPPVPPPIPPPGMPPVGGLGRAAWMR
Description: • Cell culture: CDK12 NanoBRET assay kit was obtained from Reaction Biology with experiment performed by Pharmaron. HEK293 cells were cultured using 90% DMEM with 10% FBS. Cells were cultivated in T-75 flasks in a cell culture incubator set at 37° C., 5% CO^2, 95% relative humidity. Once cells reached 80-90% confluence, they were detached and split. Cultivated cells in T-75 flasks were rinsed with 5 mL PB and aspirated off. 1.5 mL trypsin was added and incubated at 37° C. for approximately 5 minutes or until the cells detached and started to float. Trypsin was inactivated by adding excess serum containing medium. • Transient Transfection of HEK293 Cells: Cell culture medium was removed from cell flask by aspiration and trypsinized, allowing cells to dissociate from flask. Trypsin was neutralized using cell culture medium and centrifuged at 200×g for 5 minutes to pellet cells. Medium was aspirated and resuspended in assay medium consisting of 99% Opti-MEM, reduced serum medium with no phenol red and 1% FBS. Density was adjusted to 2×10^5 cells/ml using assay medium. 10 μg/ml solution of DNA in Opti-MEM was prepared consisting of 9 μg/mL of CCNK, 1 ug/mL of Kinase-NanoLuc fusion vector DNA CDK12, and 1 mL of Opti-MEM. This solution was mixed thoroughly. 30 μl of FuGENE HD Transfection Reagent was added into each milliliter of DNA mixture to form lipid: DNA complex. Mixture was inverted 5-10 times and incubated at ambient temperature for 20 minutes to allow complexes to form. In a sterile, conical tub, 1 part of lipid DNA complex (1 mL) was mixed with 20 parts of HEK293 cells (20 mL) in suspension at 2×10^5 cells/mL. Tube was mixed gently by inversion 5 times. […] Lastly, 20 μL of this 3× complete substrate plus inhibitor solution was added to each well of the 384-well plate and incubated for 2-3 minutes at room temperature and read the plate on the Envision. • Calculation: BRET Ratio was calculated as follows: […]

[2] = system: MCL1; experiment: IHC protein expression on OVCAR3 tumor samples: MCL1; format: in vivo, human; conditions: OVCAR3 tumor samples from Example 1 CDX study
Description: • Sample Collection: 16 tumor samples were collected across the vehicle, olaparib, E7820 single agent, and paclitaxel arms from the in vivo OVCAR3 CDX study described in Example 1
• 1) Collect fresh specimens and place in 10% NBF (neutral-buffered formalin; fixative volume/tissue, 10˜20 folds), fix at room temperature for 24 hours. • 2) Trim the fixed tissue at the thickness of 3-5 mm. • 3) Move the tissue into the Embedding box, and snap the box into deionized water for 30 minutes, change water twice every 30 minutes. • 4) After washing, the fixed tissues are transferred to the LEICA ASP300S Vacuum Tissue Processor for dehydration.
• All stained sections are scanned with NanoZoomer-HT 2.0 Image system for 40× magnification. High resolution picture for whole section is generated and further quantification analyzed by HALO. All the scanned images are analyzed by HALO™ platform. The whole slide image is analyzed and necrosis and stroma area are excluded, only viable tumor area is scored. The intensity of specific staining is scored at four levels, 0 (negative), 1+(weak staining), 2+(medium staining), 3+(strong staining). The percentages of tumor cells at different intensity levels are evaluated with H-score. H-Score=(% at 0)×0+(% at 1)×1+(% at 2)×2+(% at 3)×3 (H-Score range is 0 to 300).

CDK12 kinase activity [1]: does not affect CDK12 kinase activity
SMILES: Cc1ccc(NS(=O)(=O)c2cccc(C#N)c2)c2[nH]cc(C#N)c12 [Compound E7820]
MCL1 protein expression (IHC) [2]: no changes
